Patent US7566718B2, “Amine-linked pyridyl and phenyl substituted piperazine-piperidines with CXCR3 antagonist activity” (Schering Corporation, priority 2005, dated 2009)
pIC50: −log10 of the molar value. Read-outs that look alike come from different tables or passages of the source.

Target: T1, human CXCR3 (N-delta 4) (Homo sapiens, UniProt P49682)
T1 construct: CD8 leader (N); Flag tag; expressed in transfected cells; membrane preparation
T1 sequence (P49682 5-368 limits assumed): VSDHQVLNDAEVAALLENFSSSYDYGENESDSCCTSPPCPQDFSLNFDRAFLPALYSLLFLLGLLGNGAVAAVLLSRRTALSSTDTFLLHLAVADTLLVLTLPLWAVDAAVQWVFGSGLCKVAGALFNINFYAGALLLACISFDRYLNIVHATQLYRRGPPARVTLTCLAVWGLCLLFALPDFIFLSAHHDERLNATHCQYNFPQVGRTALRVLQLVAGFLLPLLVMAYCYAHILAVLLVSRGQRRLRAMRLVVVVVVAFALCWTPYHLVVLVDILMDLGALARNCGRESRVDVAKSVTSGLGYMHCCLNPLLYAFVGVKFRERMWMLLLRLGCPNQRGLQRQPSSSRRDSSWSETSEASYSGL
Assay: Human CXCR3 (N-delta 4) scintillation proximity assay (SPA), [125I] IP-10 binding to Ba/F3-hCXCR3 membranes
Summary of the method: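 Membranes from Ba/F3 cells expressing Flag-tagged hCXCR3 (N-delta 4), 2 μg/point, precoupled to WGA SPA beads. Binding of 25 pM [125I] IP-10 measured with titrated compounds, 3 hr at room temperature, in HEPES buffer with CaCl2, MgCl2, NaCl and 1.0% BSA; bound tracer read by scintillation counting.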

[1] = IC50 rating, [125I] IP-10 displacement, human CXCR3, read-out: IC50

| Structure (SMILES) | pIC50 [1] | pIC50 (value given in the text as example, read-out: IC50 value) |
| --- | --- | --- |
| C[C@@H]1CN(c2ncc(Nc3c(NCC(F)(F)F)c(=O)c3=O)cc2Cl)[C@@H](C)CN1C1CCN(Cc2cccc(C(F)(F)F)c2)CC1 [Compound 157] | < 7.00 |  |
| C[C@@H]1CN(c2ncc(Nc3c(NCC(F)(F)F)c(=O)c3=O)cc2Cl)[C@@H](C)CN1C1CCN(CCC(C)(C)C)CC1 [Compound 150] | < 7.00 |  |
| CCNC(=O)Nc1cnc(N2CCN(C3CCN(Cc4ccc(Cl)cc4)CC3)[C@@H](C)C2)c(Cl)c1 [Compound 190] | 7.00 to 7.60 |  |
| C[C@@H]1CN(c2ncc(Nc3c(NCC(F)(F)F)c(=O)c3=O)cc2Cl)[C@@H](C)CN1C1CCN(Cc2nccs2)CC1 [Compound 152] | < 7.00 |  |
| CC[C@H]1CN(c2ncc(NS(C)(=O)=O)cc2Cl)CCN1C1CCN(C(C(=O)OC)c2ccc(Cl)cc2)CC1 (some centres unmarked) [Compound 39] | 7.00 to 7.60 |  |
| C[C@@H]1CN(c2ncc(Nc3c(NCC(F)(F)F)c(=O)c3=O)cc2Cl)[C@@H](C)CN1C1CCN(Cc2ccc(-c3ccccc3)cc2)CC1 [Compound 135] | < 7.00 |  |
| C[C@@H]1CN(c2ncc(Nc3c(NCC(F)(F)F)c(=O)c3=O)cc2Cl)[C@@H](C)CN1C1CCN(Cc2ccc(Oc3ccccc3)cc2)CC1 [Compound 161] | < 7.00 |  |
| C[C@@H]1CN(c2ncc(Nc3c(NCC(F)(F)F)c(=O)c3=O)cc2Cl)[C@@H](C)CN1C1CCN(Cc2ccccc2O)CC1 [Compound 153] | < 7.00 |  |
| COc1ccccc1CN1CCC(N2C[C@H](C)N(c3ncc(Nc4c(NCC(F)(F)F)c(=O)c4=O)cc3Cl)C[C@H]2C)CC1 [Compound 154] | < 7.00 |  |
| CC[C@H]1CN(c2ncc(Nc3c(NCCN(C)C)c(=O)c3=O)cc2Cl)CCN1C1CCN([C@H](CO)c2ccc(Cl)cc2)CC1 [Compound 95] | > 7.60 |  |
| C[C@H]1CN(c2ncc(NS(C)(=O)=O)cc2Cl)CCN1C1CCN(Cc2ccc(OC(F)(F)F)cc2)CC1 [Compound 38] | 7.00 to 7.60 |  |
| CCNC(=O)Nc1ccc(N2CCN(C3CCN(Cc4ccc(Cl)cc4)CC3)[C@@H](CC)C2)c(Cl)c1 [Compound 192] | < 7.00 |  |
| CCC(=O)[C@@H](c1ccc(Cl)cc1)N1CCC(N2CCN(c3ncc(NS(N)(=O)=O)cc3Cl)C[C@@H]2CC)CC1 [Compound 41] | < 7.00 |  |
| CC[C@H]1CN(c2ncc([N+](=O)[O-])cc2Cl)CCN1C1CCN([C@H](CO)c2ccc(Cl)cc2)CC1 [Compound 201] | > 7.60 |  |
| C[C@H]1CN(c2ncc(NC(=O)NCc3ccccc3)cc2Cl)CCN1C1CCN(Cc2ccc(Cl)cc2)CC1 [Compound 198] | < 7.00 |  |
| CC[C@H]1CN(c2ncc(Nc3c(NCC(F)(F)F)c(=O)c3=O)cc2Cl)CCN1C1CCN(C(CO)c2ccc(Cl)cc2)CC1 (some centres unmarked) [Compound 85] | > 7.60 |  |
| C[C@@H]1CN(c2ncc(Nc3c(NCC(F)(F)F)c(=O)c3=O)cc2Cl)[C@@H](C)CN1C1CCN(CC(c2ccccc2)c2ccccc2)CC1 [Compound 160] | < 7.00 |  |
| C[C@@H]1CN(c2ncc(Nc3c(NCC(F)(F)F)c(=O)c3=O)cc2Cl)[C@@H](C)CN1C1CCN(C2CCC(c3ccccc3)CC2)CC1 (some centres unmarked) [Compound 173] | < 7.00 |  |
| CC1CCCC(N2CCC(N3C[C@H](C)N(c4ncc(Nc5c(NCC(F)(F)F)c(=O)c5=O)cc4Cl)C[C@H]3C)CC2)C1 (some centres unmarked) [Compound 163] | < 7.00 |  |
| C[C@H]1CN(c2ncc(N)cc2Cl)CCN1C1CCN(Cc2ccc(Cl)cc2)CC1 [Compound 218] | < 7.00 |  |
| CC[C@H]1CN(c2ncc(NS(C)(=O)=O)cc2Cl)CCN1C1CCN([C@@H](C(N)=O)c2ccc(Cl)cc2)CC1 [Compound 59] | < 7.00 |  |
| CCC(C)(C)C1CCC(N2CCC(N3C[C@H](C)N(c4ncc(Nc5c(NCC(F)(F)F)c(=O)c5=O)cc4Cl)C[C@H]3C)CC2)C1 (some centres unmarked) [Compound 171] | < 7.00 |  |
| CC[C@H]1CN(c2ncc(NS(N)(=O)=O)cc2Cl)CCN1C1CCN([C@H](C(=O)OC)c2ccc(Cl)cc2)CC1 [Compound 16] | > 7.60 |  |
| CC[C@H]1CN(c2ncc(N(Cc3ccc(C#N)cc3)c3c(C(C)C)c(=O)c3=O)cc2Cl)CCN1C1CCN(Cc2ccc(C#N)cc2)CC1 [Compound 148] | < 7.00 |  |
| CC[C@H]1CN(c2ncc(NS(C)(=O)=O)cc2Cl)CCN1C1CCN(C(=O)c2ccc(OC(F)(F)F)cc2)CC1 [Compound 68] | < 7.00 |  |
| C[C@@H]1CN(c2ncc(Nc3c(NCC(F)(F)F)c(=O)c3=O)cc2Cl)[C@@H](C)CN1C1CCN(Cc2ccccc2OCC(=O)O)CC1 [Compound 137] | < 7.00 |  |
| CCC(C)CN1CCC(N2C[C@H](C)N(c3ncc(Nc4c(NCC(F)(F)F)c(=O)c4=O)cc3Cl)C[C@H]2C)CC1 (some centres unmarked) [Compound 170] | < 7.00 |  |
| CCNC(=O)Nc1cc(Cl)c(N2CCN(C3CCN(Cc4ccc(Cl)cc4)CC3)[C@@H](CC)C2)c(Cl)c1 [Compound 193] | < 7.00 |  |

The remaining lines, values ahead:

| pIC50 [1] | pIC50 (value given in the text as example, read-out: IC50 value) | Structure (SMILES) |
| --- | --- | --- |
| < 7.00 |  | CC[C@H]1CN(c2ncc(NC3=NS(=O)(=O)N=C3Nc3ccccc3O)cc2Cl)CCN1C1CCN(Cc2ccc(Cl)cc2F)CC1 [Compound 277] |
| < 7.00 |  | CC[C@H]1CN(c2ncc(NS(C)(=O)=O)cc2Cl)CCN1C1CCN(Cc2ccc(N(C)C)cc2)CC1 [Compound 45] |
| 7.00 to 7.60 |  | CC[C@H]1CN(c2ncc(N/C(=N/C#N)NC3CC3)cc2Cl)CCN1C1CCN(Cc2ccc(Cl)cc2F)CC1 [Compound 209] |
| < 7.00 |  | CC[C@H]1CN(c2cc(N)c(N)cc2Cl)CCN1C1CCN(Cc2ccc(Cl)cc2F)CC1 [Compound 226] |
| > 7.60 |  | CC[C@H]1CN(c2ncc(Nc3c(NC4CCC4)c(=O)c3=O)cc2Cl)CCN1C1CCN(Cc2ccc(Cl)cc2F)CC1 [Compound 87] |
| 7.00 to 7.60 |  | CC[C@H]1CN(c2ncc(NS(N)(=O)=O)cc2Cl)CCN1C1CCN(C(=O)c2ccc(Cl)cc2)CC1 [Compound 33] |
| < 7.00 |  | CC[C@H]1CN(c2ncc(NS(C)(=O)=O)cc2Cl)CCN1C1CCN(Cc2cc(C)c(C)s2)CC1 [Compound 43] |
| > 7.60 |  | CC[C@H]1CN(c2ncc(Nc3c(C(C)C)c(=O)c3=O)cc2Cl)CCN1C1CCN(Cc2ccc(OC(F)(F)F)cc2)CC1 [Compound 86] |
| < 7.00 |  | CC[C@H]1CN(c2ncc(NS(C)(=O)=O)cc2Cl)CCN1C1CCN(Cc2cccs2)CC1 [Compound 58] |
| > 7.60 |  | CC[C@H]1CN(c2ncc(NC3=NS(=O)(=O)N=C3NC3CC3)cc2Cl)CCN1C1CCN(Cc2ccc(Cl)cc2-c2ncon2)CC1 [Compound 249] |
| < 7.00 |  | CC[C@H]1CN(c2nc(N)c(N)nc2Cl)CCN1C1CCN(Cc2ccc(Cl)cc2F)CC1 [Compound 219] |
| > 7.60 |  | CC[C@H]1CN(c2ccc(Nc3c(NC4CC4)c(=O)c3=O)cc2Cl)CCN1C1CCN(Cc2ccc(Cl)cc2F)CC1 [Compound 82] |
| > 7.60 |  | CC[C@H]1CN(c2ncc(Nc3c(NC4CC4)c(=O)c3=O)cc2Cl)CCN1C1CCN(C(=O)c2ccc(Cl)cc2)CC1 [Compound 102] |
| < 7.00 |  | CC[C@H]1CN(c2ncc(NS(C)(=O)=O)cc2Cl)CCN1C1CCN(Cc2ccc(C(=O)OC)cn2)CC1 [Compound 42] |
| < 7.00 |  | CC[C@H]1CN(c2ncc(NS(C)(=O)=O)cc2Cl)CCN1C1CCN(Cc2ccc(Br)cc2OC)CC1 [Compound 65] |
| > 7.60 |  | CC[C@H]1CN(c2ncc(Nc3c(NC4CC4)c(=O)c3=O)cc2Cl)CCN1C1CCN(Cc2ccc(Cl)cc2F)CC1 [Compound 73] |
| > 7.60 |  | CC[C@H]1CN(c2ncc(NC3=NS(=O)(=O)N=C3NC3CC3)cc2Cl)CCN1C1CCN(Cc2ccc(Cl)cc2F)CC1 [Compound 235] |
| > 7.60 |  | CC[C@H]1CN(c2ncc(NC3=NS(=O)(=O)N=C3NC)cc2Cl)CCN1C1CCN(Cc2ccc(Cl)cc2C(=N)NO)CC1 [Compound 244] |
| > 7.60 |  | CC[C@H]1CN(c2ncc(Nc3c(NC4CC4)c(=O)c3=O)cc2Cl)CCN1C1CCN(Cc2ccc(Cl)cc2)CC1 [Compound 70] |
| < 7.00 |  | CC[C@H]1CN(c2ncc(-n3cccc3)cc2Cl)CCN1C1CCN(Cc2ccc(Cl)cc2F)CC1 [Compound 222] |
| < 7.00 |  | CCNC(=O)Nc1cnc(N2C[C@H](C)N(C3CCN(Cc4ccc(Cl)cc4F)CC3)C[C@H]2C)c(Cl)c1 [Compound 191] |
| < 7.00 |  | CC[C@H]1CN(c2ncc(NS(C)(=O)=O)cc2Cl)CCN1C1CCN(C(=O)c2ccc(Cl)cc2O)CC1 [Compound 62] |
| > 7.60 |  | C[C@@H]1CN(C2CCN(Cc3ccc(Cl)cc3F)CC2)[C@@H](C)CN1c1ncc(Nc2c(N)c(=O)c2=O)cc1Cl [Compound 100] |
| < 7.00 |  | CC[C@H]1CN(c2ncc(NC3=NS(=O)(=O)N=C3N(C)C)cc2Cl)CCN1C1CCN(Cc2ccc(OC(F)(F)F)cc2)CC1 [Compound 271] |
| > 7.60 |  | CC[C@H]1CN(c2ncc(Nc3c(NC4CC4)c(=O)c3=O)cc2Cl)CCN1C1CCN(Cc2ccc(Cl)cc2C#N)CC1 [Compound 97] |
| > 7.60 |  | CC[C@H]1CN(c2ncc(NC3=NS(=O)(=O)N=C3NC3CC3)cc2Cl)CCN1C1CCN([C@H](CO)c2ccc(Cl)cc2)CC1 [Compound 240] |
| > 7.60 |  | CC[C@H]1CN(c2ncc(Nc3c(NC4CC4)c(=O)c3=O)cc2Cl)CCN1C1CCN(Cc2ccc(Br)cc2F)CC1 [Compound 79] |
| > 7.60 |  | CC[C@H]1CN(c2ncc(NS(C)(=O)=O)cc2Cl)CCN1C1CCN(Cc2ccc(OC(F)(F)F)cc2)CC1 [Compound 10] |
| > 7.60 | 9.10 | CC[C@H]1CN(c2ncc(NS(C)(=O)=O)cc2Cl)CCN1C1CCN(Cc2ccc(Cl)cc2OC)CC1 [Compound 1] |
| < 7.00 |  | CC[C@H]1CN(c2ncc([N+](=O)[O-])cc2Cl)CCN1C1CCN(Cc2ccc(Cl)cc2-c2nnc(Br)[nH]2)CC1 [Compound 230] |
